Source: US6762052B1, “DNA sequence encoding flavin-containing monooxygenase” (priority 1993, dated 2004)
Read-outs that look alike come from different tables or passages of the source.

Experiments:
Human Liver Microsomes = assay: in vitro
Procedure: In all cases examined, product formation was directly determined by HPLC analysis of organic extracts.
Human liver samples were obtained from the Department of Surgery (UCSF) and with a protocol from the Medical College of Wisconsin (S. Wrighton).
A typical incubation mixture (final volume 0.25 ml) contained hepatic microsomes (0.4 mg of protein) or bacterial lysate (2.3 mg of protein), NADP^+ (0.5 mM), glucose-6-phosphate (2.0 mM), glucose-6-phosphate dehydrogenase (1 IU), DETAPAC (0.8 mM) and potassium phosphate buffer (50 mM, pH 8.4). Reactions were initiated by the addition of substrate and terminated at designated times by the addition of three volumes of cold dichloromethane, mixed thoroughly and centrifuged to separate the aqueous and organic fractions. N- and S-oxide metabolic products in the resulting organic extracts were separated and quantified by HPLC. […] Thiobenzamide and thiobenzamide S-oxide were quantified with this same, HPLC system employing a mobile phase of methanol/acetonitrile/60% perchloric acid (20:80:0.016, v/v) which gave retention volumes of 2.7 and 7.0 ml, respectively. […] The major metabolites formed in the incubations were also subjected to mass spectral analysis after extraction of isolated HPLC fractions.
RPLC of the S-oxide diastereomers with a Chiracel OT chiral analytical column (25 cm×0.15 cm inner diameter, Daicel Chemical Co., New York, N.Y.) was accomplished with a Beckman system, Kratos UV detector (240 nm) and a Hewlett Packard Integrator. […] Quantification was accomplished by comparing integrated HPLC peak areas after taking into account the difference in the extinction coefficients at 240 nm. Likewise, the cis and trans S-oxide diasteromers of (+)- and (−)-2-methyl-1,-benzodithiole were separated with a Chiracel OT chiral analytical column.

[1] = test system: human FMO3-maltose binding protein (FMO3-MBP); assay: Sequential N-oxygenation of primary amines to oximes by cDNA-expressed human FMO3-MBP; format: in vitro ADME
From the text: The cDNA-expressed human FMO3-maltose binding protein (FMO3-MBP) efficiently catalyzes the sequential N-oxygenation of primary amines to oximes through the intermediacy of hydroxylamines. […] In addition, formation was not dependent on autoxidation of hydroxylamines or generation of oxygen radical species. Thus, […] and O2^− had virtually no effect on the formation of oxime from the primary hydroxylamine. […] This represents a fundamental difference between FMO3 and other FMOs and indicates a use of FMO3 as a stereoselective catalyst in the formation of precious chemicals or hard to form metabolites having great stereochemical purity.

NM522 E. coli = assay: Bactericidal action / cytotoxicity in liquid culture; details: 50 or 100 micrograms per mL
pig liver FMO form I = target: T1, pig liver FMO form I (Sus scrofa, UniProt P16549); details: cited from earlier work
T1 sequence (P16549 1-532): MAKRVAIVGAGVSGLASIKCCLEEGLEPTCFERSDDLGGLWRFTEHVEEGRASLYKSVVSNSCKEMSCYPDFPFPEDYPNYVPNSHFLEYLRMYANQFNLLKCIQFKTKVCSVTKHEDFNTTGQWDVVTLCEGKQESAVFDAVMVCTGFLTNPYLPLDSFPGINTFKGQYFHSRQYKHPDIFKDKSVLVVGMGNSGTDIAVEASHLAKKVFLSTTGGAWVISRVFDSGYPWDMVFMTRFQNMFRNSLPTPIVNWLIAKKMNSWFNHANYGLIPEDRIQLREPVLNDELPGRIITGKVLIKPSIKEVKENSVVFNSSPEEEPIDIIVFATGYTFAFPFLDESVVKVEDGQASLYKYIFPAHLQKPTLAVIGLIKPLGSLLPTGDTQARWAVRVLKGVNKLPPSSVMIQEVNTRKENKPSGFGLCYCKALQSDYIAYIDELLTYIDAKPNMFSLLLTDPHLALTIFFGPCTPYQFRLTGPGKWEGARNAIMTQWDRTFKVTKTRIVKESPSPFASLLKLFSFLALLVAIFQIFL

[2] = substrate: NC(=S)c1ccccc1; assay: cells, lysate or membranes named; details: other: N- or S-oxide formation; for the 4-bromophenyl-1,3-oxathiolanes formation of the trans S-oxide; pH 8.4; 37.0 °C
Procedure: Competent NM522 Escherichia coli cells were transformed with the pTrc HLFMO 3 plasmid. […] After inoculation with a fresh overnight culture of NM522 containing pTrcHLFMO 3, the culture was grown at 37° C. until Abs600 was approximately 0.5 absorbance units. Finally, IPTG (0.8 mM) was added to the culture to induce expression of protein and the culture was left to grow overnight at 37° C.
The bacterial pellet was resuspended in 5 volumes of 50 mM potassium phosphate buffer (pH 8.4) containing 1% Triton X-100, 0.1% L-, α-phosphatidylcholine (L-α-lecithin) from egg yolk, 500 μM PMSF, and 1 mM EDTA. The mixture was sonicated and then centrifuged to remove cellular debris. […]

not read = substrate: CN(C)C; assay: not read; details: other: Lys 158 variant; evaporative light scattering HPLC detection; 37.0 °C
Procedure: For HFMO3-MBP assay, all HFMO3-MBP incubations were done as follows: Into a test tube was added DETAPAC (1.2 mM, final concentration for a 250 μl reaction) followed by the addition of 60 μl NADPH generating system (0.4 mM NADP, 0.4 mM glucose-6-phosphate, and 20 μl of a 50 units mI^−1 glucose-6-phosphate dehydrogenase). The tube was chilled on ice and buffer and enzyme were added as described below for individual experiments to give a volume of 240 μl. The incubation was initiated by the addition of 5-DTP (10 μl of 5 mM) and placed in a shaking water bath at 37° C. for 10 min (unless specified otherwise). The incubation was stopped by the addition of 1.0 ml of ice-cold CH2Cl2. Following the addition of sodium carbonate (approx. 20 mg), the culture tube was vortexed, centrifuged (2000×g, 10 min), and the organic layer was removed and transferred to a 1.5 ml microfuge tube. The organic solvent was evaporated under a stream of Ar(g) to dryness and the residue was taken up in MeOH (300 μl) for determination HPLC analysis.
This HPLC system efficiently resolved the 5-DTP substrate from the N-oxide product with retention times of 5.30 min and 4.30 min, respectively.
MTS-oxygenation assays were carried out under the same buffer, temperature, time and volume conditions, as for the N-oxygenation assays. The reactions were initiated upon addition of 10 μl of a 5 mM solution of MTS. […]

Molecule: CCCCCCCCNN1c2ccccc2Sc2ccc(C(F)(F)F)cc21 [10-(N-n-octylamino)-2-(trifluoromethyl)phenothiazine]
- oxime formation from primary amine, product stereoselectivity (Human Liver Microsomes): stereoslectively converted to the cis oxime
- oxime formation from primary amine, product stereoselectivity [1]: stereoselectively converted to the cis oxime

Molecule: NCCc1ccccc1 [phenethylamine]
- oxime formation from primary amine, product stereoselectivity (Human Liver Microsomes; adult human liver microsomes, NADPH-dependent): stereoselectively converted to trans oximes
- oxime formation from primary amine, product stereoselectivity ([1]; cDNA-expressed human FMO3-MBP): stereoselectively converted to trans oximes

Molecule: C[N+]1([O-])CCN(c2cc3c(cc2F)c(=O)c(C(=O)O)cn3-c2ccc(F)cc2)CC1 [difloxacin terminal tertiary amine N-oxide]
- cytotoxicity (NM522 E. coli): not significantly cytotoxic

Molecule: CN(C)CCCN1c2ccccc2CCc2ccccc21 [imipramine]
- substrate activity, in words (pig liver FMO form I): excellent substrate

B1: adult human liver flavin-containing monooxygenase (form 3) (Homo sapiens; E158K) (protein)
chain: MGKKVAIIGAGVSGLASIRSCLEEGLEPTCFEKSNDIGGLWKFSDHAEEGRASIYKSVFSNSSKEMMCFPDFPFPDDFPNFMHNSKIQEYIIAFAKEKNLLKYIQFKTFVSSVNKHPDFATTGQWDVTTERDGKKESAVFDAVMVCSGHHVYPNLPKKSFPGLNHFKGKCFHSRDYKEPGVFNGKRVLVVGLGNSGCDIATELSRTAEQVMISSRSGSWVMSRVWDNGYPWDMLLVTRFGTFLKNNLPTAISDWLYVKQMNARFKHENYGLMPLNGVLRKEPVFNDELPASILCGIVSVKPNVKEFTETSAIFEDGTIFEGIDCVIFATGYSFAYPFLDESIIKSRNNEIILFKGVFPPLLEKSTIAVIGFVQSLGAAIPTVDLQSRWAAQVIKGTCTLPSMEDMMNDINEKMEKKRKWFGKSETIQTDYIVYMDELSSFIGAKPNIPWLFLTDPKLAMEVYFGPCSPYQFRLVGPGQWPGARNAILTQWDRSLKPMQTRVVGRLQKPCFFFHWLKLFAIPILLIAVFLVLT
- Km [2]: 72.6 µM
- Vmax [2]: 1.44 nmol/min/mg of protein

B2: lys158-HFMO3-MBP (Homo sapiens; E158K) (protein)
chain: GKKVAIIGAGVSGLASIRSCLEEGLEPTCFEKSNDIGGLWKFSDHAEEGRASIYKSVFSNSSKEMMCFPDFPFPDDFPNFMHNSKIQEYIIAFAKEKNLLKYIQFKTFVSSVNKHPDFATTGQWDVTTERDGKKESAVFDAVMVCSGHHVYPNLPKKSFPGLNHFKGKCFHSRDYKEPGVFNGKRVLVVGLGNSGCDIATELSRTAEQVMISSRSGSWVMSRVWDNGYPWDMLLVTRFGTFLKNNLPTAISDWLYVKQMNARFKHENYGLMPLNGVLRKEPVFNDELPASILCGIVSVKPNVKEFTETSAIFEDGTIFEGIDCVIFATGYSFAYPFLDESIIKSRNNEIILFKGVFPPLLEKSTIAVIGFVQSLGAAIPTVDLQSRWAAQVIKGTCTLPSMEDMMNDINEKMEKKRKWFGKSETIQTDYIVYMDELSSFIGAKPNIPWLFLTDPKLAMEVYFGPCSPYQFRLVGPGQWPGARNAILTQWDRSLKPMQTRVVGRLQKPCFFFHWLKLFAIPILLIAVFLVLT
- Km (not read): 634 µM
